In patent US20260256705A1, “LIPID NANOPARTICLE FORMULATIONS FOR VACCINES” (GLOBAL LIFE SCIENCES SOLUTIONS CANADA ULC, priority 2022, published 2026):

Tested on: Luciferase mRNA
Test: Intravenous protein replacement model, Luciferase mRNA LNP
Assay type: in vivo, mice
Details: intravenous 0.1 mg/kg, four hours post administration
Procedure: Two different LNPs according to embodiments of the invention were injected into mice intravenously at 0.1 mg/kg. The payload was Luciferase·mRNA (Trilink-CLEANCAP™ FLuc mRNA (5 moU), Cat #L-7202). The top row of photographs in FIG. 8 showing fluorescence at four hours post administration was achieved by intravenous administration of LNP comprising PNI 516 30%, DPSC 56%, cholesterol 12.5% and DMG-PEG 1.5%. The bottom row in FIG. 8, which is brighter, was achieved by LNP comprising PNI 580 30%, DSPC 56%, cholesterol 12.5%, and DMG-PEG-1.5%.

SMILES: CCCCCCCCC(CCCCCC)C(=O)O[C@@H]1[C@@H](OC(=O)C(CCCCCC)CCCCCCCC)CO[C@@H]1COC(=O)CCCN(C)C (stereo partly drawn) [PNI 580, (2R,3S,4S)-2-(((4-(dimethylamino)butanoyl)oxy)methyl)tetrahydrofuran-3,4-diyl bis(2-hexyldecanoate)]
- protein expression in vivo (fluorescence): slightly more effective
